Test [1] concerns MV4:11 human cancer cell lines. The test is described as follows: Cellular viability / anti-proliferative assay, CellTiter-Glo, 5 day protocol. Format: cell-based. The conditions noted are these: Homo sapiens, MV4-11, 120 h, read-out: GI50 on cellular proliferation of MV4:11 human cancer cell lines. A digest of the protocol:
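MV-4-11 cells in IMDM with 10% FBS, 200 cells/well, exposed 5 days to 22 two-fold dilutions from 30 μM, final DMSO 0.3%. Viability read by CellTiter-Glo luminescence; GI50 from sigmoidal dose-response fit, mean of at least two replicates.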
(In ATP-based viability assays light output follows the ATP content of the culture.)

Another test addresses WDR5 (Homo sapiens, UniProt P61964). Put plainly: TR-FRET competition binding assay, displacement of 10mer-Thr-FAM MLL peptide probe from His-tagged WDR5. The conditions noted are these: WDR5-His tag (residues 24-334) 2 nM; 10mer-Thr-FAM 150 nM; 60 min, room temperature; read-out: Ki for Inhibition of WDR5 by TR-FRET assay. For orientation: TR-FRET usually uses a lanthanide donor and a delayed reading to cut background.

[2] abbreviates: MV4:11 cells, 5 day incubation, CellTiter-Glo, mean of at least two replicates.

In general, Ki refers to the dissociation constant of the complex between target and ligand, obtained from inhibition or displacement.

Where two headings read alike, the source gives them in different places.

Turning to `CCc1cc(-c2cncnc2)c2nccc(N3CCc4c(cc(Cn5ccnc5)cc4-c4cn(C)nc4C(F)(F)F)C3=O)c2c1` [Example 96, 7-((1H-Imidazol-1-yl)methyl)-2-(6-ethyl-8-(pyrimidin-5-yl)quinolin-4-yl)-5-(1-methyl-3-(trifluoromethyl)-1H-pyrazol-4-yl)-3,4-dihydroisoquinolin-1(2H)-one], the GI50 in test [1] (setting [2]) was under 20 nM. In addition, the Ki on WDR5 was under 0.02 nM.

Consider `COc1ccc2c(=O)[nH]cc(N3CCc4c(cc(Cn5ccnc5)cc4-c4cn(C)nc4C(F)(F)F)C3=O)c2c1` [Example 98, 7-((1H-imidazol-1-yl)methyl)-6′-methoxy-5-(1-methyl-3-(trifluoromethyl)-1H-pyrazol-4-yl)-3,4-dihydro-1H-[2,4′-biisoquinoline]-1,1′(2′H)-dione], for which the GI50 in test [1] (setting [2]) turned out to be 163 nM. Further, the Ki at WDR5 worked out at 0.059 nM.

As to `COc1cc(Br)c2nc(C)cc(N3CCc4c(cc(Cn5ccnc5)cc4-c4cn(C)nc4C(F)(F)F)C3=O)c2c1` [Example 101, 7-((1H-imidazol-1-yl)methyl)-2-(8-bromo-6-methoxy-2-methylquinolin-4-yl)-5-(1-methyl-3-(trifluoromethyl)-1H-pyrazol-4-yl)-3,4-dihydroisoquinolin-1(2H)-one], the GI50 in test [1] (setting [2]) is under 20 nM. For the same molecule, on WDR5, the Ki was determined as 0.023 nM.

Turning to `Cc1ccc2c(N3CCc4c(cc(Cn5ccnc5)cc4-c4cn(C)nc4C(F)(F)F)C3=O)cccc2n1` [Example 103, 7-((1H-Imidazol-1-yl)methyl)-5-(1-methyl-3-(trifluoromethyl)-1H-pyrazol-4-yl)-2-(2-methylquinolin-5-yl)-3,4-dihydroisoquinolin-1(2H)-one], the GI50 in test [1] (setting [2]) was determined as 718 nM. The Ki at WDR5 worked out at 0.029 nM.

For `Cc1cnc2cccc(N3CCc4c(cc(Cn5ccnc5)cc4-c4cn(C)nc4C(F)(F)F)C3=O)c2c1` [Example 104, 7-((1H-Imidazol-1-yl)methyl)-5-(1-methyl-3-(trifluoromethyl)-1H-pyrazol-4-yl)-2-(3-methylquinolin-5-yl)-3,4-dihydroisoquinolin-1(2H)-one], in test [1] (setting [2]), the GI50 is 24 nM. Also, the Ki at WDR5 turned out to be 0.028 nM.

As for `Cc1cc(OCCN(C)C)c2cncc(N3CCc4c(cc(Cn5ccnc5)cc4-c4cn(C)nc4C(F)(F)F)C3=O)c2c1` [Example 106, 7-((1H-Imidazol-1-yl)methyl)-8′-(2-(dimethylamino)ethoxy)-6′-methyl-5-(1-methyl-3-(trifluoromethyl)-1H-pyrazol-4-yl)-3,4-dihydro-1H-[2,4′-biisoquinolin]-1-one], the GI50 in test [1] (setting [2]) is under 20 nM. The Ki on WDR5 was 0.045 nM.

Consider `CCc1ccc2c(N3CCc4c(cc(Cn5ccnc5)cc4-c4cn(C)nc4C(F)(F)F)C3=O)cccc2n1` [Example 107], for which the GI50 in test [1] (setting [2]) was 452 nM. Also, the Ki at WDR5 amounted to 0.021 nM.

On to `Cc1cc2c(N3CCc4c(cc(Cn5ccnc5)cc4-c4cn(C)nc4C(F)(F)F)C3=O)cccc2nc1C` [Example 108, 7-((1H-imidazol-1-yl)methy)-2-(2,3-dimethylquinolin-5-yl)-5-(1-methyl-3-(trifluoromethyl)-1H-pyrazol-4-yl)-3,4-dihydroisoquinolin-1(2H)-one], for which the GI50 in test [1] (setting [2]) amounted to 40 nM. Also, the Ki at WDR5 stood at 0.042 nM.

With `CCc1cc(Br)c2nc(C)cc(N3CCc4c(cc(Cn5ccnc5)cc4-c4cn(C)nc4C(F)(F)F)C3=O)c2c1` [Example 109, 7-((1H-imidazol-1-yl)methyl)-2-(8-bromo-6-ethyl-2-methylquinolin-4-yl)-5-(1-methyl-3-(trifluoromethyl)-1H-pyrazol-4-yl)-3,4-dihydroisoquinolin-1(2H)-one], in test [1] (setting [2]), the GI50 is 22 nM. Also, the inhibition constant (Ki) at WDR5 is under 0.02 nM.

For the molecule `CCc1cc(N2CCN(C)CC2)c2nc(C)cc(N3CCc4c(cc(Cn5ccnc5)cc4-c4cn(C)nc4C(F)(F)F)C3=O)c2c1` [Example 110, 7-((1H-imidazol-1-yl)methyl)-2-(6-ethyl-2-methyl-8-(4-methylpiperazin-1-yl)quinolin-4-yl)-5-(1-methyl-3-(trifluoromethyl)-1H-pyrazol-4-yl)-3,4-dihydroisoquinolin-1(2H)-one], the GI50 in test [1] (setting [2]) was under 20 nM. Also, the Ki on WDR5 was 0.021 nM.

Regarding `Cc1cc(N2CCN(C)C(=O)C2)c2cncc(N3CCc4c(cc(Cn5ccnc5)cc4-c4cn(C)nc4C(F)(F)F)C3=O)c2c1` [Example 112, 7-((1H-Imidazol-1-yl)methyl)-6′-methyl-5-(1-methyl-3-(trifluoromethyl)-1H-pyrazol-4-yl)-8′-(4-methyl-3-oxopiperazin-1-yl)-3,4-dihydro-1H-[2,4′-biisoquinolin]-1-one], the GI50 in test [1] (setting [2]) came out at 23 nM. Moreover, on WDR5, the Ki worked out at 0.037 nM.

In the case of `CCc1cc(N2CC(=O)N(C)C2)c2nc(C)cc(N3CCc4c(cc(Cn5ccnc5)cc4-c4cn(C)nc4C(F)(F)F)C3=O)c2c1` [Example 113, 7-((1H-Imidazol-1-yl)methyl)-2-(6-ethyl-2-methyl-8-(3-methyl-4-oxoimidazolidin-1-yl)quinolin-4-yl)-5-(1-methyl-3-(trifluoromethyl)-1H-pyrazol-4-yl)-3,4-dihydroisoquinolin-1(2H)-one], the GI50 in test [1] (setting [2]) was under 20 nM. The Ki on WDR5 was 0.023 nM.

Consider `COc1cc2c(N3CCc4c(cc(Cn5ccnc5)cc4-c4cn(C)nc4C(F)(F)F)C3=O)cccc2nc1C` [Example 114, 7-((1H-Imidazol-1-yl)methyl)-2-(3-methoxy-2-methylquinolin-5-yl)-5-(1-methyl-3-(trifluoromethyl)-1H-pyrazol-4-yl)-3,4-dihydroisoquinolin-1(2H)-one], for which, in test [1] (setting [2]), the GI50 turned out to be 43 nM. The Ki at WDR5 was 0.038 nM.

With `CCc1cc(F)c2cncc(N3CCc4c(cc(Cn5ccnc5)cc4-c4cn(C)nc4C(F)(F)F)C3=O)c2c1` [Example 115, 7-((1H-Imidazol-1-yl)methyl)-6′-ethyl-8′-fluoro-5-(1-methyl-3-(trifluoromethyl)-1H-pyrazol-4-yl)-3,4-dihydro-1H-[2,4′-biisoquinolin]-1-one], the GI50 in test [1] (setting [2]) was 40 nM. Also, at WDR5, the Ki turned out to be 0.031 nM.

On to `CCc1cc(OC)c2cncc(N3CCc4c(cc(Cn5ccnc5)cc4-c4cn(C)nc4C(F)(F)F)C3=O)c2c1` [Example 116, 7-((1H-Imidazol-1-yl)methy)-6′-ethyl-8-methoxy-5-(1-methyl-3-(trifluoromethyl)-1H-pyrazol-4-yl)-3,4-dihydro-1H-[2,4′-biisoquinolin]-one], for which the GI50 in test [1] is under 20 nM. Moreover, at WDR5, the Ki was found to be 0.028 nM.

On to `CCc1cc2c(N3CCc4c(cc(Cn5ccnc5)cc4-c4cn(C)nc4C(F)(F)F)C3=O)cccc2nc1C` [Example 117, 7-((1H-Imidazol-1-yl)methyl)-2-(3-ethyl-2-methylquinolin-5-yl)-5-(1-methyl-3-(trifluoromethyl)-1H-pyrazol-4-yl)-3,4-dihydroisoquinolin-1(2H)-one], for which the GI50 in test [1] amounted to 64 nM. The Ki on WDR5 was determined as 0.036 nM.

For the molecule `COc1ccc2nc(C)cc(N3CCc4c(cc(Cn5ccnc5[N+](=O)[O-])cc4-c4cn(C)nc4C(F)(F)F)C3=O)c2c1` [Example 118, 2-(6-Methoxy-2-methylquinolin-4-yl)-5-(1-methyl-3-(trifluoromethyl)-1H-pyrazol-4-yl)-7-((2-nitro-1H-imidazol-1-yl)methyl)-3,4-dihydroisoquinolin-1(2)-one], the GI50 in test [1] (setting [2]) is 3970 nM. Besides, the Ki at WDR5 is over 33000 nM.

These data come from US12692249B2, “WDR5 inhibitors and modulators” (Vanderbilt University, priority 2019, dated 2026).
